# In PubChem BioAssay AID220 (DTP/NCI, 2004):
# “And” between values parts separate entries of the source, which are not always exact repeats. Identical values can stand only once. Inconclusive results are not listed.
# Tested on: CD8F1 mice, subcutaneous mammary adenocarcinoma, T/C%
# Assay: NCI In Vivo Anticancer Drug Screen. Data for tumor model Mammary Adenocarcinoma CD8F1 (subcutaneous) in CD8F1
# Conditions: higher = larger tumour
# Outline: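 Transplantable tumors were established in mice, animals were dosed with compound or vehicle, and survival or tumor size was then measured in both groups. The treated result was divided by the control result.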
# [1] = endpoint: median tumor weight (est.), dose: 25.0 mg/kg/injection, schedule: Q07DX005 (ip), vehicle: Klucel (hydroxypropylcellulose) (HPC)
# [2] = endpoint: median tumor weight (est.), dose: 50.0 mg/kg/injection, schedule: Q07DX005 (ip), vehicle: Klucel (hydroxypropylcellulose) (HPC)
# [3] = endpoint: median tumor weight (est.), dose: 100.0 mg/kg/injection, schedule: Q07DX005 (ip), vehicle: Klucel (hydroxypropylcellulose) (HPC)
# [4] = endpoint: median tumor weight (est.), dose: 200.0 mg/kg/injection, schedule: Q07DX005 (ip), vehicle: Klucel (hydroxypropylcellulose) (HPC)
# [5] = endpoint: median tumor weight (est.), dose: 400.0 mg/kg/injection, schedule: Q07DX005 (ip), vehicle: Klucel (hydroxypropylcellulose) (HPC)
# [6] = endpoint: median tumor weight change, dose: 62.5 mg/kg/injection, schedule: Q01DX001 (ip), vehicle: saline with Tween-80
# [7] = endpoint: median tumor weight change, dose: 125.0 mg/kg/injection, schedule: Q01DX001 (ip), vehicle: saline with Tween-80
# [8] = endpoint: median tumor weight change, dose: 250.0 mg/kg/injection, schedule: Q01DX001 (ip), vehicle: saline with Tween-80
# [9] = endpoint: median tumor weight (est.), dose: 25.0 mg/kg/injection, schedule: Q07DX005 (ip), vehicle: suspension in saline
# [10] = endpoint: median tumor weight (est.), dose: 50.0 mg/kg/injection, schedule: Q07DX005 (ip), vehicle: suspension in saline
# [11] = endpoint: median tumor weight (est.), dose: 100.0 mg/kg/injection, schedule: Q07DX005 (ip), vehicle: suspension in saline
# [12] = endpoint: median tumor weight (est.), dose: 200.0 mg/kg/injection, schedule: Q07DX005 (ip), vehicle: suspension in saline
# [13] = endpoint: median tumor weight change, dose: 125.0 mg/kg/injection, schedule: Q01DX001 (ip), vehicle: Klucel (hydroxypropylcellulose) (HPC)
# [14] = endpoint: median tumor weight change, dose: 250.0 mg/kg/injection, schedule: Q01DX001 (ip), vehicle: Klucel (hydroxypropylcellulose) (HPC)
# [15] = endpoint: median tumor weight (est.), dose: 12.5 mg/kg/injection, schedule: Q07DX005 (ip), vehicle: Klucel (hydroxypropylcellulose) (HPC)
smiles,measurement,setting,value
CN(C)/N=N/c1nc[nH]c1C(N)=O,T/C,"endpoint: median tumor weight (est.), dose: 25.0 mg/kg/injection, schedule: Q07DX004 (ip), vehicle: saline",102 % of control
same,T/C,[1],118 % of control
same,T/C,"endpoint: median tumor weight (est.), dose: 50.0 mg/kg/injection, schedule: Q07DX004 (ip), vehicle: saline",111 % of control
same,T/C,[2],81 % of control
same,T/C,"endpoint: median tumor weight (est.), dose: 100.0 mg/kg/injection, schedule: Q07DX004 (ip), vehicle: saline",90 % of control
same,T/C,[3],46 % of control
same,T/C,"endpoint: median tumor weight (est.), dose: 200.0 mg/kg/injection, schedule: Q07DX004 (ip), vehicle: saline",62 % of control
same,T/C,[4],26 % of control
same,T/C,"endpoint: median tumor weight (est.), dose: 400.0 mg/kg/injection, schedule: Q07DX004 (ip), vehicle: saline",13 % of control
same,T/C,[5],16 % of control
CO[C@@H]1[C@H](O)CC[C@]2(CO2)[C@H]1[C@@]1(C)O[C@@H]1CC=C(C)C,T/C,"endpoint: median tumor weight change, dose: 31.25 mg/kg/injection, schedule: Q01DX001 (ip), vehicle: saline with Tween-80",113 % of control
same,T/C,[6],100 % of control
same,T/C,[7],106 % of control
same,T/C,[8],110 % of control
O=C(Oc1ccccc1)c1cc(O)c(O)c(O)c1,T/C,"endpoint: median tumor weight change, dose: 150.0 mg/kg/injection, schedule: Q01DX001 (ip), vehicle: suspension in saline",98 % of control
same,T/C,"endpoint: median tumor weight change, dose: 300.0 mg/kg/injection, schedule: Q01DX001 (ip), vehicle: suspension in saline",111 % of control
C/C=C/C=C/c1cc2cc3c(c(O)c2c(=O)[nH]1)C1(CC3)C(O)=c2c(=O)c3c(=O)cc(OC)c(=O)c=3c(=O)c2=C1O (configuration not stated),T/C,"endpoint: median tumor weight change, dose: 2.5 mg/kg/injection, schedule: Q01DX001 (ip), vehicle: DMSO",106 % of control
same,T/C,"endpoint: median tumor weight change, dose: 5.0 mg/kg/injection, schedule: Q01DX001 (ip), vehicle: DMSO",79 % of control
CN(C)CCN1C(=O)c2cccc3cc(N)cc(c23)C1=O,T/C,"endpoint: median tumor weight change, dose: 10.0 mg/kg/injection, schedule: Q01DX001 (ip), vehicle: saline with Tween-80",81 % of control and 92 % of control
same,T/C,"endpoint: median tumor weight change, dose: 40.0 mg/kg/injection, schedule: Q01DX001 (ip), vehicle: saline with Tween-80",42 % of control and 44 % of control and 61 % of control
COC1C(OC(=O)/C=C/C=C/C=C/C=C/C(=O)O)CCC2(CO2)C1C1(C)OC1CC=C(C)C (configuration not stated),T/C,[9],102 % of control
same,T/C,[10],106 % of control
same,T/C,[11],91 % of control
same,T/C,[12],94 % of control
same,T/C,"endpoint: median tumor weight change, dose: 125.0 mg/kg/injection, schedule: Q01DX001 (ip), vehicle: suspension in saline",85 % of control
same,T/C,"endpoint: median tumor weight change, dose: 250.0 mg/kg/injection, schedule: Q01DX001 (ip), vehicle: suspension in saline",56 % of control
same,T/C,"endpoint: median tumor weight change, dose: 500.0 mg/kg/injection, schedule: Q01DX001 (ip), vehicle: suspension in saline",58 % of control
Cc1ccc(N)c(N)c1,T/C,[7],65 % of control
same,T/C,[8],48 % of control
same,T/C,"endpoint: median tumor weight change, dose: 500.0 mg/kg/injection, schedule: Q01DX001 (ip), vehicle: saline with Tween-80",75 % of control
COC1/C=C/C=C(/C)Cc2cc(O)c(Cl)c(c2)N(C)C(=O)CC(OC(=O)C(C)C)C2(C)OC2C(C)C2CC1(O)NC(=O)O2 (configuration not stated),T/C,"endpoint: median tumor weight change, dose: 0.62 mg/kg/injection, schedule: Q01DX001 (ip), vehicle: saline + alcohol",49 % of control
same,T/C,"endpoint: median tumor weight change, dose: 1.25 mg/kg/injection, schedule: Q01DX001 (ip), vehicle: saline + alcohol",34 % of control and 54 % of control
same,T/C,"endpoint: median tumor weight change, dose: 2.5 mg/kg/injection, schedule: Q01DX001 (ip), vehicle: saline + alcohol",50 % of control and 70 % of control
same,T/C,"endpoint: median tumor weight change, dose: 5.0 mg/kg/injection, schedule: Q01DX001 (ip), vehicle: saline + alcohol",54 % of control and 55 % of control
same,T/C,"endpoint: median tumor weight change, dose: 10.0 mg/kg/injection, schedule: Q01DX001 (ip), vehicle: saline + alcohol",35 % of control and 60 % of control
same,T/C,"endpoint: median tumor weight change, dose: 20.0 mg/kg/injection, schedule: Q01DX001 (ip), vehicle: saline + alcohol",48 % of control
COc1cc(C(=O)c2cc3c(cc2C)OCO3)cc(OC)c1OC,T/C,[13],59 % of control and 75 % of control
same,T/C,[14],47 % of control and 54 % of control
same,T/C,"endpoint: median tumor weight change, dose: 500.0 mg/kg/injection, schedule: Q01DX001 (ip), vehicle: Klucel (hydroxypropylcellulose) (HPC)",70 % of control
Cc1ncc(CNC(=O)N(CCCl)N=O)c(N)n1,T/C,"endpoint: median tumor weight (est.), dose: 6.25 mg/kg/injection, schedule: Q07DX005 (ip), vehicle: saline",18 % of control
same,T/C,"endpoint: median tumor weight (est.), dose: 12.5 mg/kg/injection, schedule: Q07DX005 (ip), vehicle: saline",20 % of control
same,T/C,"endpoint: median tumor weight (est.), dose: 25.0 mg/kg/injection, schedule: Q07DX005 (ip), vehicle: saline",14 % of control
C[n+]1ccc(Nc2ccc(NC(=O)c3ccc(Nc4cc[n+](C)c5ccc(N)cc45)cc3)cc2)cc1,T/C,"endpoint: median tumor weight (est.), dose: 16.0 mg/kg/injection, schedule: Q07DX005 (ip), vehicle: Klucel (hydroxypropylcellulose) (HPC)",51 % of control and 65 % of control
same,T/C,"endpoint: median tumor weight (est.), dose: 32.0 mg/kg/injection, schedule: Q07DX005 (ip), vehicle: Klucel (hydroxypropylcellulose) (HPC)",24 % of control and 25 % of control
Clc1ccc(C2SC=Cc3ccccc32)cc1 (configuration not stated),T/C,"endpoint: median tumor weight change, dose: 62.0 mg/kg/injection, schedule: Q01DX001 (ip), vehicle: Klucel (hydroxypropylcellulose) (HPC)",88 % of control
same,T/C,[14],50 % of control and 54 % of control and 58 % of control
CCc1nc(N)nc(N)c1-c1ccc(Cl)c([N+](=O)[O-])c1,T/C,"endpoint: median tumor weight change, dose: 6.25 mg/kg/injection, schedule: Q01DX001 (ip), vehicle: saline with Tween-80",47 % of control
same,T/C,"endpoint: median tumor weight change, dose: 12.5 mg/kg/injection, schedule: Q01DX001 (ip), vehicle: saline with Tween-80",39 % of control
same,T/C,"endpoint: median tumor weight change, dose: 25.0 mg/kg/injection, schedule: Q01DX001 (ip), vehicle: saline with Tween-80",20 % of control
same,T/C,"endpoint: median tumor weight change, dose: 50.0 mg/kg/injection, schedule: Q01DX001 (ip), vehicle: saline with Tween-80",38 % of control
same,T/C,"endpoint: median tumor weight change, dose: 100.0 mg/kg/injection, schedule: Q01DX001 (ip), vehicle: saline with Tween-80",47 % of control
CC(C)CCCCCCCCCCCCC(=O)NCC(=O)NC1C(O)C(O)C(Nc2ncnc3nc[nH]c23)OC1C(O)CO (configuration not stated),T/C,"endpoint: median tumor weight (est.), dose: 1.0 mg/kg/injection, schedule: Q07DX005 (ip), vehicle: Klucel (hydroxypropylcellulose) (HPC)",169 % of control
same,T/C,"endpoint: median tumor weight (est.), dose: 2.0 mg/kg/injection, schedule: Q07DX005 (ip), vehicle: Klucel (hydroxypropylcellulose) (HPC)",51 % of control and 76 % of control
Cc1cc(C)c(-c2cc(O)c(C)cc2O)c(C)c1,T/C,[15],56 % of control
same,T/C,[1],150 % of control and 267 % of control
same,T/C,[2],81 % of control
same,T/C,[4],71 % of control
same,T/C,[5],28 % of control
C1CCC2OCCOCCOC3CCCCC3OCCOCCOC2C1 (configuration not stated),T/C,"endpoint: median tumor weight (est.), dose: 3.12 mg/kg/injection, schedule: Q07DX005 (ip), vehicle: Klucel (hydroxypropylcellulose) (HPC)",90 % of control
same,T/C,"endpoint: median tumor weight (est.), dose: 6.25 mg/kg/injection, schedule: Q07DX005 (ip), vehicle: Klucel (hydroxypropylcellulose) (HPC)",55 % of control
same,T/C,[1],70 % of control
same,T/C,[2],83 % of control
[I][Hg][CH2]C1OCCOC1[CH2][Hg][I] (configuration not stated),T/C,[15],96 % of control
same,T/C,[1],100 % of control
same,T/C,[2],85 % of control
same,T/C,[3],76 % of control
same,T/C,[4],52 % of control
CN(C)c1ccc2c(NCCCCCCNc3ccnc4cc(N(C)C)ccc34)ccnc2c1,T/C,"endpoint: median tumor weight change, dose: 15.62 mg/kg/injection, schedule: Q01DX001 (ip), vehicle: distilled water + Tween-80 + alcohol",66 % of control
same,T/C,"endpoint: median tumor weight change, dose: 31.0 mg/kg/injection, schedule: Q01DX001 (ip), vehicle: distilled water + Tween-80 + alcohol",94 % of control
same,T/C,"endpoint: median tumor weight change, dose: 31.25 mg/kg/injection, schedule: Q01DX001 (ip), vehicle: distilled water + Tween-80 + alcohol",96 % of control
same,T/C,"endpoint: median tumor weight change, dose: 62.5 mg/kg/injection, schedule: Q01DX001 (ip), vehicle: distilled water + Tween-80 + alcohol",3 % of control
same,T/C,"endpoint: median tumor weight change, dose: 62.5 mg/kg/injection, schedule: Q01DX001 (ip), vehicle: distilled water + Tween-80",48 % of control
same,T/C,"endpoint: median tumor weight change, dose: 125.0 mg/kg/injection, schedule: Q01DX001 (ip), vehicle: distilled water + Tween-80 + alcohol",51 % of control
same,T/C,"endpoint: median tumor weight change, dose: 250.0 mg/kg/injection, schedule: Q01DX001 (ip), vehicle: distilled water + Tween-80 + alcohol",8 % of control and 28 % of control
Cc1ccc(S(=O)(=O)NC(=O)C2C(=O)CC3(CCCCC3)CC2=O)cc1,T/C,"endpoint: median tumor weight change, dose: 31.25 mg/kg/injection, schedule: Q01DX001 (ip), vehicle: Klucel (hydroxypropylcellulose) (HPC)",93 % of control
same,T/C,"endpoint: median tumor weight change, dose: 62.5 mg/kg/injection, schedule: Q01DX001 (ip), vehicle: Klucel (hydroxypropylcellulose) (HPC)",101 % of control
same,T/C,[13],122 % of control
Nc1nc2nc[nH]c2c(=O)[nH]1,T/C,[9],73 % of control
same,T/C,[10],73 % of control
same,T/C,[11],69 % of control
same,T/C,[12],73 % of control
Cn1c2ccccc2c2ccc3c(c21)C(=O)C=CC3=O,T/C,[6],38 % of control
